pIC50: −log10 of the molar value. Active and inactive are the calls of the source. The calls are words filed in the database; no cut-off is given here.
Columns and labels:
[1] = target: T1, Sialyltransferase ST3Gal-I (Rattus norvegicus, UniProt Q6H8N0); assay: Inhibition of rat ST3GAL1 by UPLC-based assay
T1 sequence (Q6H8N0 whole entry): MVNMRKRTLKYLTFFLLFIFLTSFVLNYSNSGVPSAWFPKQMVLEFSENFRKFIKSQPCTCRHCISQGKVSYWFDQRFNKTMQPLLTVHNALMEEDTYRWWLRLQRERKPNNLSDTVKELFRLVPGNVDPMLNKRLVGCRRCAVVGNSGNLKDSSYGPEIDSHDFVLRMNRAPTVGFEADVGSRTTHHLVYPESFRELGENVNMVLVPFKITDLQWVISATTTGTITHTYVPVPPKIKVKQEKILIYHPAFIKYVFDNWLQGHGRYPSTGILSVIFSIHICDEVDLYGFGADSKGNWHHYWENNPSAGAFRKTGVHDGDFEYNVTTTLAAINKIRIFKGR

[2] = target: Integrin beta-4 (Homo sapiens) (UniProt P16144); assay: Inhibition of integrin beta-4 in human MDA-MB-231 cells assessed as decrease in sialylation level incubated for 48 hrs by Western blot analysis; format: cell-based; conditions: dose 20-80 µM
Chain of Integrin beta-4 (Homo sapiens) (P16144 whole entry): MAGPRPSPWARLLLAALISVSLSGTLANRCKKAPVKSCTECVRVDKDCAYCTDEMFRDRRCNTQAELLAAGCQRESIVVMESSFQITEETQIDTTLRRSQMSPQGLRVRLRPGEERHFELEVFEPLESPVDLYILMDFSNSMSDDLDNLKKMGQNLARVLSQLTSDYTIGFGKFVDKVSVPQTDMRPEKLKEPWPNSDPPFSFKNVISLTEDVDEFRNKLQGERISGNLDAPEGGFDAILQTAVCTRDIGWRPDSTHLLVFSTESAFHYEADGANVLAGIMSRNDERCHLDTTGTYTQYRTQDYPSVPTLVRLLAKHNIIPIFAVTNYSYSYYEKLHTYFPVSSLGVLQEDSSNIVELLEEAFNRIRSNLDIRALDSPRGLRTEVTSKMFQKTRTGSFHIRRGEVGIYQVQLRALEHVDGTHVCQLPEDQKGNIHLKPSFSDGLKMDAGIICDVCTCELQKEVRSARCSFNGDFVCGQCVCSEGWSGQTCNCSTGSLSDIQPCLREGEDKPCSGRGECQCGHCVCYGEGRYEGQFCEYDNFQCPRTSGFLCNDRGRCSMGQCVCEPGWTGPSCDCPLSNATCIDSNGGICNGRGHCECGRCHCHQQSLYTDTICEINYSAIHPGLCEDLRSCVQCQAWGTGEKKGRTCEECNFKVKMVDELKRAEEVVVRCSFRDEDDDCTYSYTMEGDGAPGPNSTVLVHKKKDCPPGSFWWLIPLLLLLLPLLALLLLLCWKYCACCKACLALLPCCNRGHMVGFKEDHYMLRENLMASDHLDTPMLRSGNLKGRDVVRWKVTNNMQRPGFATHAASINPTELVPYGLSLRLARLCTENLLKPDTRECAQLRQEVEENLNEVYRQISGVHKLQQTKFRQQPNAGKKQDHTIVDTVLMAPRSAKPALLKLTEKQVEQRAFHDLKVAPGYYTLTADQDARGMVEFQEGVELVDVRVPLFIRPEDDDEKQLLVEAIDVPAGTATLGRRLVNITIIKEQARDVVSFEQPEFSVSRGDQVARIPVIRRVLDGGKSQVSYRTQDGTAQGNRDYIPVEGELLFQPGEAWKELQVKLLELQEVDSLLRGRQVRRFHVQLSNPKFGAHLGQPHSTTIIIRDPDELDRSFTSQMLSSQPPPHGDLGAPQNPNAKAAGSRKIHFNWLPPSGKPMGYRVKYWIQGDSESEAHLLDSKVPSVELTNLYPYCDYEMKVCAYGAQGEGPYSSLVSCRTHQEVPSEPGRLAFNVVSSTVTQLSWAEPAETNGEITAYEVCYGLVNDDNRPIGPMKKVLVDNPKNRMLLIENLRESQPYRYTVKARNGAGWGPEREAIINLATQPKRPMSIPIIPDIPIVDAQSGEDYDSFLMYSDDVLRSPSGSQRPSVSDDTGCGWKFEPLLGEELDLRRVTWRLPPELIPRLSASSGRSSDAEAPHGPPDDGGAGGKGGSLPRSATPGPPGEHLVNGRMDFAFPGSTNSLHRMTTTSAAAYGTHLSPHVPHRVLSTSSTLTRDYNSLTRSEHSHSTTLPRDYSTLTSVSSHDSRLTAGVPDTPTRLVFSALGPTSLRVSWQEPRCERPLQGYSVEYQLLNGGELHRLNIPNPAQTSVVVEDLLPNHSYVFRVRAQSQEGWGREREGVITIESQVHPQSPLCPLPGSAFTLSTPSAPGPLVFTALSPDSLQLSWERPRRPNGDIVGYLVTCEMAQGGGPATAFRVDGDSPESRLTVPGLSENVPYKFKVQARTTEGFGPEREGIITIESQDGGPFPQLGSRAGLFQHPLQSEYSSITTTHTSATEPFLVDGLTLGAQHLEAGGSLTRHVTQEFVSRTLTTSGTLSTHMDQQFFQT

[3] = target: Integrin alpha-5 (Homo sapiens) (UniProt P08648); assay: Inhibition of integrin alpha-5 in human MDA-MB-231 cells assessed as decrease in sialylation level incubated for 48 hrs by Western blot analysis; format: cell-based; conditions: dose 20-80 µM
Chain of Integrin alpha-5 (Homo sapiens) (P08648 42-894 limits assumed): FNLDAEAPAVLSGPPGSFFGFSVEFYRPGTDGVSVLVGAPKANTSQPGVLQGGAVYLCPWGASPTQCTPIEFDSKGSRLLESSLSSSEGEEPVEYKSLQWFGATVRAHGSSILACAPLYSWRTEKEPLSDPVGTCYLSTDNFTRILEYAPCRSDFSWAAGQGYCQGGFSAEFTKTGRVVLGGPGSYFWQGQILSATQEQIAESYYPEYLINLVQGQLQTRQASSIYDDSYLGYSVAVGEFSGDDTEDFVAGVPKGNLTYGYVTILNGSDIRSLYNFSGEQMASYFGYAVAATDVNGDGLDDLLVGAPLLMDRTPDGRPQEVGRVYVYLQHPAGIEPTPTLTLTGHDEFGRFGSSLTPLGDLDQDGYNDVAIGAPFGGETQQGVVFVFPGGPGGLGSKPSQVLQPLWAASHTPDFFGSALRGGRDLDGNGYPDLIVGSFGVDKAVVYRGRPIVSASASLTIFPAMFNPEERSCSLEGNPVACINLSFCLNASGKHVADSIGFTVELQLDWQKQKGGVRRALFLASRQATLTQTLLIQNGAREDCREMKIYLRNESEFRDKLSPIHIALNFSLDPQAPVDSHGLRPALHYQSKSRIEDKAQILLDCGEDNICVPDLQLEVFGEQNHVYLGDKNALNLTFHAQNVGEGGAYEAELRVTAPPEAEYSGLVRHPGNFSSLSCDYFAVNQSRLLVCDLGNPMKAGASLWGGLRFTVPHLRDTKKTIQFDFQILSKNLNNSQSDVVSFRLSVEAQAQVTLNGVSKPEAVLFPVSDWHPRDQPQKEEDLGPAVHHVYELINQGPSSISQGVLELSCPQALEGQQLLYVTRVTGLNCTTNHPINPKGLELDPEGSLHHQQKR
Chain of Integrin alpha-5 (Homo sapiens) (P08648 895-1049 limits assumed): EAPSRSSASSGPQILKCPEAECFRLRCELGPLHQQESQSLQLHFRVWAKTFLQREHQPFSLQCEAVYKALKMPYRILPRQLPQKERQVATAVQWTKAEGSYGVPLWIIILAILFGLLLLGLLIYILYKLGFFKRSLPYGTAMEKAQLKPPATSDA

[4] = tested on: MDA-MB-231; assay: Inhibition of cell invasion in human MDA-MB-231 cells assessed as reduction in cell adhesion to collagen IV at 60 uM incubated for 48 hrs; format: functional, cell-based
[5] = target: T2, Integrin beta-5 (Homo sapiens) (UniProt P18084); assay: Inhibition of integrin beta-5 in human MDA-MB-231 cells assessed as decrease in sialylation level incubated for 48 hrs by Western blot analysis; format: cell-based; conditions: dose 20-80 µM
T2 sequence (whole entry): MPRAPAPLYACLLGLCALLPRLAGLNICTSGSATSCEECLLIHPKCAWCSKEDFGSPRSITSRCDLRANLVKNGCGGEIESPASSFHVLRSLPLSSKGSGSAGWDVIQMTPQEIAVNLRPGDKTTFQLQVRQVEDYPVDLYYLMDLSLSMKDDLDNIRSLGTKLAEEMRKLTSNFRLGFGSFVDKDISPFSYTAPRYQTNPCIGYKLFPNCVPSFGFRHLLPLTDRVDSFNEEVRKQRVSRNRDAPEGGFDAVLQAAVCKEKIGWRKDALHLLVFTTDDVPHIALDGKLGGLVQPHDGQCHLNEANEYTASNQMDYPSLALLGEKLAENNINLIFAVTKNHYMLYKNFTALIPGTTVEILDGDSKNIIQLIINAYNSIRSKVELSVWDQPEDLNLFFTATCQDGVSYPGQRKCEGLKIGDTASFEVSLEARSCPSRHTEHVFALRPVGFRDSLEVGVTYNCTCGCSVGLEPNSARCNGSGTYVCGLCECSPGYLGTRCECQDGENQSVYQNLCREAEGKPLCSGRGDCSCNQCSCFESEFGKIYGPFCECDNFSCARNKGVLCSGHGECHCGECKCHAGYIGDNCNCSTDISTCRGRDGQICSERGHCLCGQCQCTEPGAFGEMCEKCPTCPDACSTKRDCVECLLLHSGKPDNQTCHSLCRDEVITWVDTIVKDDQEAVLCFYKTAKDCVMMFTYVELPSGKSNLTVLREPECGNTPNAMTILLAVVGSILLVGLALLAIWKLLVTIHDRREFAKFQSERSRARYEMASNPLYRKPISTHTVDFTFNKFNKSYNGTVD

In the case of `C[C@H](CCCOS(=O)(=O)O)[C@H]1CC[C@H]2[C@@H]3CC[C@@H]4C[C@H](O)CC[C@]4(C)[C@H]3CC[C@]12C`, the pIC50 [1] was less than 3.00, the Activity [2] was “Dose-Dependent Effect” and the Activity [3] was “Dose-Dependent Effect”. The inhibition [4] was “Active” and the Activity [5] was “Dose-Dependent Effect”.

— ChEMBL document CHEMBL5634174, “Biological evaluation of sulfonate and sulfate analogues of lithocholic acid: A bioisosterism-guided approach towards the discovery of potential sialyltransferase inhibitors for antimetastatic study” (Bioorg Med Chem Lett, 2024)
